# Measurements published in patent US20230093099A1, “COMPOUNDS AND METHODS OF TREATING CANCERS” (CULLGEN (SHANGHAI), INC., priority 2019, published 2023).
# pIC50: −log10 of the molar value.
# System: RS4;11 cells
# Test: Cell viability assay (CellTiter-Glo) in RS4;11 cells
# Assay type: cell-based
# Conditions: Homo sapiens, 72 h; RS4;11 ALL cells treated for three days; read-out: cell viability inhibition IC50
# Method in brief: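 Three-day compound treatment of RS4;11 ALL cells (5000/well, 3-fold dilution series of 8 or 12 points), with IC50 from a nonlinear least-squares fit to CellTiter-Glo viability data.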
row,pIC50,SMILES
1,> 7.00,"CS(=O)(=O)c1ccc(-c2cccc3nc(Nc4ccc(N5CCN(C(=O)CCCCCNc6ccc7c(c6)C(=O)N(C6CCC(=O)NC6=O)C7=O)CC5)cc4)nn23)cc1 (stereo not shown) [JA-198, 2-(2,6-dioxopiperidin-3-yl)-5-((6-(4-(4-((5-(4-(methylsulfonyl)phenyl)-[1,2,4]triazolo[1,5-a]pyridin-2-yl)amino)phenyl)piperazin-1-yl)-6-oxohexyl)amino)isoindoline-1,3-dione]"

# Same assay, conditions: Homo sapiens, 72 h; RS4;11 cells; cell viability, 3 days, CellTiter-Glo; read-out: IC50
row,SMILES,pIC50
1,"Cc1cnc(Nc2ccc(N3CCN(CC(=O)NCCOCCOCCOCCOCCC(=O)NC(C(=O)N4C[C@H](O)C[C@H]4C(=O)NCc4ccc(-c5scnc5C)cc4)C(C)(C)C)CC3)cc2)nc1Nc1cccc(S(=O)(=O)NC(C)(C)C)c1 (stereo in doubt) [JA-222, (2S,4R)-1-((S)-20-(tert-butyl)-1-(4-(4-((4-((3-(N-(tert-butyl)sulfamoyl)phenyl)amino)-5-methylpyrimidin-2-yl)amino)phenyl)piperazin-1-yl)-2,18-dioxo-6,9,12,15-tetraoxa-3,19-diazahenicosan-21-oyl)-4-hydroxy-N-(4-(4-methylthiazol-5-yl)benzyl)pyrrolidine-2-carboxamide]",< 5.00
2,"Cc1cnc(Nc2ccc(N3CCN(CC(=O)NCCCCCC(=O)N[C@H](C(=O)N4C[C@H](O)C[C@H]4C(=O)NCc4ccc(-c5scnc5C)cc4)C(C)(C)C)CC3)cc2)nc1Nc1cccc(S(=O)(=O)NC(C)(C)C)c1 [JA-101, (2S,4R)-1-((S)-2-(6-(2-(4-(4-((4-((3-(N-(tert-Butyl)sulfamoyl)phenyl)amino)-5-methylpyrimidin-2-yl)amino)phenyl)piperazin-1-yl)acetamido)hexanamido)-3,3-dimethylbutanoyl)-4-hydroxy-N-(4-(4-methylthiazol-5-yl)benzyl)pyrrolidine-2-carboxamide]",< 5.00
3,"O=C(CN1CCC(n2cc(-c3cnc4cccc(-c5cc(F)c(CN6CCOCC6)c(F)c5)c4n3)cn2)CC1)NCCOCCOCCOCCOCCNc1ccc2c(c1)C(=O)N(C1CCC(=O)NC1=O)C2=O (stereo not shown) [JA-172, 2-(4-(4-(8-(3,5-Difluoro-4-(morpholinomethyl)phenyl)quinoxalin-2-yl)-1H-pyrazol-1-yl)piperidin-1-yl)-N-(14-((2-(2,6-dioxopiperidin-3-yl)-1,3-dioxoisoindolin-5-yl)amino)-3,6,9,12-tetraoxatetradecyl)acetamide]",< 5.00
4,"O=C1CCC(n2c(=O)n(CCCCCC(=O)N3CCC(n4cc(-c5cnc6cccc(-c7cc(F)c(CN8CCOCC8)c(F)c7)c6n5)cn4)CC3)c3ccccc32)C(=O)N1 (stereo not shown) [JA-278, 3-(3-(6-(4-(4-(8-(3,5-Difluoro-4-(morpholinomethyl)phenyl)quinoxalin-2-yl)-1H-pyrazol-1-yl)piperidin-1-yl)-6-oxohexyl)-2-oxo-2,3-dihydro-1H-benzo[d]imidazol-1-yl)piperidine-2,6-dione]",< 6.30
5,"CS(=O)(=O)c1ccc(-c2cccc3nc(Nc4ccc(N5CCN(CC(=O)NCCOCCOCCOCCOCCOCCNc6cccc7c6C(=O)N(C6CCC(=O)NC6=O)C7=O)CC5)cc4)nn23)cc1 (stereo not shown) [JA-129, N-(17-((2-(2,6-Dioxopiperidin-3-yl)-1,3-dioxoisoindolin-4-yl)amino)-3,6,9,12,15-pentaoxaheptadecyl)-2-(4-(4-((5-(4-(methylsulfonyl)phenyl)-[1,2,4]triazolo[1,5-a]pyridin-2-yl)amino)phenyl)piperazin-1-yl)acetamide]",< 5.00
6,"Cc1ncsc1-c1ccc(CNC(=O)[C@@H]2C[C@@H](O)CN2C(=O)[C@@H](NC(=O)COCCOCCOCCOCCOCC(=O)N2CCC(n3cc(-c4cnc5cccc(-c6cc(F)c(CN7CCOCC7)c(F)c6)c5n4)cn3)CC2)C(C)(C)C)cc1 [JA-055, (2S,4R)-1-[(2S)-2-[[2-[2-[2-[2-[2-[2-[4-[4-[8-[3,5-Difluoro-4-(morpholinomethyl)phenyl]quinoxalin-2-yl]pyrazol-1-yl]-1-piperidyl]-2-oxo-ethoxy]ethoxy]ethoxy]ethoxy]ethoxy]acetyl]amino]-3,3-dimethyl-butanoyl]-4-hydroxy-N-[[4-(4-methylthiazol-5-yl)phenyl]methyl]pyrrolidine-2-carboxamide]",< 5.00

# Results, then the molecule that gave them:
row,pIC50,SMILES
1,5.69,"O=C(CN1CCC(n2cc(-c3cnc4cccc(-c5cc(F)c(CN6CCOCC6)c(F)c5)c4n3)cn2)CC1)NCCOCCNc1ccc2c(c1)C(=O)N(C1CCC(=O)NC1=O)C2=O (stereo not shown) [JA-169, 2-(4-(4-(8-(3,5-Difluoro-4-(morpholinomethyl)phenyl)quinoxalin-2-yl)-1H-pyrazol-1-yl)piperidin-1-yl)-N-(2-(2-((2-(2,6-dioxopiperidin-3-yl)-1,3-dioxoisoindolin-5-yl)amino)ethoxy)ethyl)acetamide]"
2,8.14,"CS(=O)(=O)c1ccc(-c2cccc3nc(Nc4ccc(N5CCN(C(=O)CCCCCNc6ccc7c(c6)C(=O)N(C6CCC(=O)NC6=O)C7=O)CC5)cc4)nn23)cc1 (stereo not shown) [JA-198, 2-(2,6-dioxopiperidin-3-yl)-5-((6-(4-(4-((5-(4-(methylsulfonyl)phenyl)-[1,2,4]triazolo[1,5-a]pyridin-2-yl)amino)phenyl)piperazin-1-yl)-6-oxohexyl)amino)isoindoline-1,3-dione]"
3,6.39,"CS(=O)(=O)c1ccc(-c2cccc3nc(Nc4ccc(N5CCN(C(=O)CCOCCOCCOCCNc6ccc7c(c6)C(=O)N(C6CCC(=O)NC6=O)C7=O)CC5)cc4)nn23)cc1 (stereo not shown) [JA-200, 2-(2,6-Dioxopiperidin-3-yl)-5-((2-(2-(2-(3-(4-(4-((5-(4-(methylsulfonyl)phenyl)-[1,2,4]triazolo[1,5-a]pyridin-2-yl)amino)phenyl)piperazin-1-yl)-3-oxopropoxy)ethoxy)ethoxy)ethyl)amino)isoindoline-1,3-dione]"
4,< 6.30,"Cn1c(=O)n(C2CCC(=O)NC2=O)c2cccc(NCCCCCC(=O)N3CCC(n4cc(-c5cnc6cccc(-c7cc(F)c(CN8CCOCC8)c(F)c7)c6n5)cn4)CC3)c21 (stereo not shown) [JA-282, 3-(4-((6-(4-(4-(8-(3,5-Difluoro-4-(morpholinomethyl)phenyl)quinoxalin-2-yl)-1H-pyrazol-1-yl)piperidin-1-yl)-6-oxohexyl)amino)-3-methyl-2-oxo-2,3-dihydro-1H-benzo[d]imidazol-1-yl)piperidine-2,6-dione]"
5,5.83,"Cc1cnc(Nc2ccc(N3CCN(C(=O)CCCNc4cccc5c4C(=O)N(C4CCC(=O)NC4=O)C5=O)CC3)cc2)nc1Nc1cccc(S(=O)(=O)NC(C)(C)C)c1 (stereo not shown) [JA-008, N-(tert-Butyl)-3-((2-((4-(4-(4-((2-(2,6-dioxopiperidin-3-yl)-1,3-dioxoisoindolin-4-yl)amino)butanoyl)piperazin-1-yl)phenyl)amino)-5-methylpyrimidin-4-yl)amino)benzenesulfonamide]"
6,6.24,"CS(=O)(=O)c1ccc(-c2cccc3nc(Nc4ccc(N5CCN(C(=O)CCOCCOCCOCCOCCNc6cccc7c6C(=O)N(C6CCC(=O)NC6=O)C7=O)CC5)cc4)nn23)cc1 (stereo not shown) [JA-080, 2-(2,6-Dioxo-piperidin-3-yl)-4-{2-[2-(2-{2-[3-(4-{4-[5-(4-methanesulfonyl-phenyl)-[1,2,4]triazolo[1,5-a]pyridin-2-ylamino]-phenyl}-piperazin-1-yl)-3-oxo-propoxy]-ethoxy}-ethoxy)-ethoxy]-ethylamino}-isoindole-1,3-dione]"
